Here are results for 2 compounds from BindingDB's records for doi:10.1016/s0960-894x(98)00197-8 (Pharmacia & Upjohn, 1999).

The target in the test is Human immunodeficiency virus type 1 protease (Human immunodeficiency virus 1, UniProt Q72874). As to the kind of experiment: Compound was evaluated for in vitro inhibition of human immunodeficiency virus type 1 (HIV-1) Protease.

Each structure is given as a SMILES string.

In turn, `CCC(c1cccc(NS(=O)(=O)c2ccc(C#N)cn2)c1)C1C(=O)CC(CC)(c2cccc(NS(=O)(=O)c3ccc(C#N)cn3)c2)OC1=O` (configuration not stated) [2N-[3-(1-{2-[3-(5-cyano-2-pyridylsulfonamido)phenyl]-2-ethyl-4-hydroxy-6-oxo-3,6-dihydro-2H-5-pyranyl}propyl)phenyl]-5-cyano-2-pyridinesulfonamide] gave a Ki of 0.1 nM. As for `CCCC1(CCc2ccccc2)CC(=O)C(C(CC)c2cccc(NS(=O)(=O)c3ccc(C#N)cn3)c2)C(=O)O1` (configuration not stated) [5-cyano-N-(3-{1-[4-hydroxy-2-oxo-6-(2-phenylethyl)-6-propyl-5,6-dihydro-2H-pyran-3-yl]propyl}phenyl)pyridine-2-sulfonamide], the figure is 0.1 nM.

What is called Ki is the dissociation constant of the complex between target and ligand, obtained from inhibition or displacement.
